Here are results for three molecules from article PMC7374060, “An Antivirulence Approach for Preventing Cryptococcus neoformans from Crossing the Blood-Brain Barrier via Novel Natural Product Inhibitors of a Fungal Metalloprotease” (mBio, 2020).

The target of this test is T1, Mpr1 (Cryptococcus neoformans, UniProt J9VXZ9).
T1 construct: gene CNAG_04735; recombinant His-tagged Mpr1 secreted from Pichia pastoris expressing CnMPR1-HIS cDNA
T1 sequence (J9VXZ9 entry or part of it): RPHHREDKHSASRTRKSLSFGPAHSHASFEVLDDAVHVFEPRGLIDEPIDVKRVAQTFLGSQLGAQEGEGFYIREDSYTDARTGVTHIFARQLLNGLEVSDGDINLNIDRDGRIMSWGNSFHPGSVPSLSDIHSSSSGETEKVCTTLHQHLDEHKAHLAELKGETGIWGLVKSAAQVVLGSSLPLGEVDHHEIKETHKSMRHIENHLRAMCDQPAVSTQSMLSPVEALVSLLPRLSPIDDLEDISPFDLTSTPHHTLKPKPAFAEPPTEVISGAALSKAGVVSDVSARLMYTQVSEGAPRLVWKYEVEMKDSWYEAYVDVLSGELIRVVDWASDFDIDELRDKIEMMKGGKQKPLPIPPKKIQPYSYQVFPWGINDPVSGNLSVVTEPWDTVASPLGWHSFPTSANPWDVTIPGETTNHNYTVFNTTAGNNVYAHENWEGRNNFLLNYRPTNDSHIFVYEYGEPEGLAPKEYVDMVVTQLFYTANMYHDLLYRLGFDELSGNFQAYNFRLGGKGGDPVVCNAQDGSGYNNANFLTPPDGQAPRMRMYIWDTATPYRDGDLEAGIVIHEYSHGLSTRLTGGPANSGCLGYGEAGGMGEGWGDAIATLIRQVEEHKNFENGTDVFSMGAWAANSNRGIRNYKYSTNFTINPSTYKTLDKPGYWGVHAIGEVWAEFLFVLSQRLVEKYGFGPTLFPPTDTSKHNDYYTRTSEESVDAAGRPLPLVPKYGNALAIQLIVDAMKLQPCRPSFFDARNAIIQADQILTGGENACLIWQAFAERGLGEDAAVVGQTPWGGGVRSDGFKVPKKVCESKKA
As to the kind of experiment: FITC-casein proteolysis assay with purified recombinant Mpr1-His. Type of test: biochemical.
For `CC(C)C1=CC2=CC[C@@H]3[C@](C)(CCC[C@@]3(C)C(=O)O)[C@H]2CC1` [NP001-1C11, abietic acid], the half-inhibitory concentration (IC50) (in general, the concentration that inhibits the measured activity by half) was 5.14 µM.

With `C[C@@H]1CC[C@@]2(OC1)O[C@H]1C[C@H]3[C@@H]4CC=C5C[C@@H](O)CC[C@]5(C)[C@H]4CC[C@]3(C)[C@H]1[C@@H]2C` [NP002-1D9, diosgenin], the IC50 was 5.03 µM.

As to `OC[C@@H]1CCCN2CCCC[C@H]12` [NP003-2B11, lupinine], the IC50 came to 9.66 µM.
